Legend:
Type in all cases: in vivo
[1] = tested on: Erysiphe graminis tritici (powdery mildew); experiment: Test 1 greenhouse foliar spray screen, powdery mildew on wheat; settings: disease control rating, foliar spray on wheat, 400 ppm (+++ at 100 ppm)
[2] = tested on: Pyricularia oryzae (rice blast); experiment: whole plant or invertebrate; settings: disease control rating, foliar spray on rice, 400 ppm (+++ at 100 ppm)
[3] = tested on: Puccinia recondita tritici (leaf rust); experiment: Test 1 greenhouse foliar spray screen, leaf rust on wheat; settings: disease control rating, foliar spray on wheat, 400 ppm (+++ at 100 ppm)
[4] = tested on: Botrytis cinerea (gray mold); experiment: Test 1 greenhouse foliar spray screen, gray mold on grape berries; settings: disease control rating, spray on grape berries, 400 ppm (+++ at 100 ppm)
[5] = tested on: Pseudoperonospora cubensis (downy mildew); experiment: Test 1 greenhouse foliar spray screen, downy mildew on squash; settings: for DOWN MDEW: disease control rating, foliar spray on squash, 400 ppm (+++ at 100 ppm)
[6] = tested on: Cercospora beticola (leaf spot); experiment: Test 1 greenhouse foliar spray screen, leaf spot on sugar beet; settings: disease control rating, foliar spray on sugar beet, 400 ppm (+++ at 100 ppm)
[7] = tested on: Venturia inaequalis (apple scab); experiment: Test 1 greenhouse foliar spray screen, apple scab on apple seedling; settings: disease control rating, foliar spray on apple seedling, 400 ppm (+++ at 100 ppm)
[8] = tested on: Septoria tritici (leaf blotch); experiment: Test 1 greenhouse foliar spray screen, leaf blotch on wheat; settings: disease control rating, foliar spray on wheat, 400 ppm (+++ at 100 ppm)
[9] = tested on: southern armyworm (Spodopetra eridania Cramer); experiment: Mite/insect screen, SAW; settings: percent mortality, SAW; for mortality at 200 ppm / mortality at 400 ppm: Spodoptera eridania, read-out: SAW RESULTS %; for mortality at 200 ppm / SAW RESULTS %: SM & MA RATE 200 PPM; for mortality at 400 ppm: SM & MA RATE 400 PPM
Procedure, shortened: (§1)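 First, each compound was dissolved in an emulsifier-containing acetone/alcohol mixture and diluted with water. Next, leaves were sprayed until runoff and left to dry for an hour. For southern armyworm, two excised uninfested leaves went into a Petri dish with larvae; percent mortality followed standard exposure periods.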

[10] = tested on: Twospotted spider mites (Tetranychus urticae Koch); experiment: Mite/insect screen, SM; settings: for mortality at 200 ppm / mortality at 400 ppm: Tetranychus urticae, read-out: SM RESULTS %; for mortality at 200 ppm / SM RESULTS % / mortality at 400 ppm: percent mortality, SAW; for mortality at 200 ppm / SM RESULTS %: SM & MA RATE 200 PPM; for activity as miticides: summary statement in the description; for mortality at 400 ppm: SM & MA RATE 400 PPM
Procedure, shortened: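 Read-out: percent mortality after standard exposure periods. Test solutions were water dilutions of compound dissolved in acetone/alcohol (50:50) with emulsifier blends; leaves were sprayed to runoff on both surfaces and air-dried for one hour before exposure.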

[11] = tested on: melon aphids (Aphis gossypii Glover); experiment: Mite/insect screen, MA; settings: percent mortality, SAW; for mortality at 200 ppm / mortality at 400 ppm: Aphis gossypii, read-out: MA RESULTS %; for mortality at 200 ppm / MA RESULTS %: SM & MA RATE 200 PPM; for mortality at 400 ppm: SM & MA RATE 400 PPM
Procedure, shortened: as §1

corn rootworm = experiment: Mite/insect screen, CRW; settings: percent mortality; for mortality at 12 ppm / CRW RESULTS %: CRW RATE 12.00 PPM; for mortality at 12 ppm / mortality at 24 ppm: read-out: CRW RESULTS %; for mortality at 24 ppm: CRW RATE 24.00 PPM
Procedure, shortened: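 Stock in acetone:alcohol 1:1 + TOXIMUL R 23 g/L + TOXIMUL S 13 g/L; diluted with water to indicated concentrations; mortality (%) after standard exposure.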

| Compound | POWD MDEW [1] | RICE BLAST [2] | LEAF RUST [3] | GRAY MOLD [4] | DOWN MDEW [5] | LEAF SPOT [6] | APPL SCAB [7] | LEAF BLOT [8] | mortality at 200 ppm [9] | mortality at 200 ppm [10] | mortality at 200 ppm [11] | mortality at 12 ppm (corn rootworm) | activity as miticides [10] | mortality at 400 ppm [9] | mortality at 400 ppm [10] | mortality at 400 ppm [11] | mortality at 24 ppm (corn rootworm) | other results |
| --- | --- | --- | --- | --- | --- | --- | --- | --- | --- | --- | --- | --- | --- | --- | --- | --- | --- | --- |
| Clc1cc(NCCc2ccccc2)c2cccc(Cl)c2n1 [Example 93, 2,8-dichloro-N-(2-phenylethyl)-4-quinolinamine] | - (0-19% control at 400 ppm) | - (0-19% control at 400 ppm) | - (0-19% control at 400 ppm) | - (0-19% control at 400 ppm) | - (0-19% control at 400 ppm) | + (20-89% control at 400 ppm) | - (0-19% control at 400 ppm) | + (20-89% control at 400 ppm) | 0% | 0% | 0% | 0% | – | – | – | – | – | – |
| Fc1cccc2c(NCCc3ccc(Br)cc3)ccnc12 [Example 94, N-[2-(4-bromophenyl)ethyl]-8-fluoro-4-quinolinamine] | + (20-89% control at 400 ppm) | +++ (90-100% control at 100 ppm) | +++ (90-100% control at 100 ppm) | - (0-19% control at 400 ppm) | +++ (90-100% control at 100 ppm) | +++ (90-100% control at 100 ppm) | - (0-19% control at 400 ppm) | + (20-89% control at 400 ppm) | 0% | 0% | 0% | 100% | particularly excellent activity | – | – | – | – | – |
| Fc1cccc2c(NCCc3cccc(C(F)(F)F)c3)ccnc12 [Example 95, 8-fluoro-N-[2-[3-(trifluoromethyl)phenyl]ethyl]-4-quinolinamine] | + (20-89% control at 400 ppm) | ++ (90-100% control at 400 ppm) | +++ (90-100% control at 100 ppm) | + (20-89% control at 400 ppm) | +++ (90-100% control at 100 ppm) | + (20-89% control at 400 ppm) | + (20-89% control at 400 ppm) | +++ (90-100% control at 100 ppm) | 20% | 0% | 0% | 0% | – | – | – | – | – | activity against downy mildew ([5]; summary statement in the description): particularly excellent activity; SAW RESULTS % [9]: 40%; SM RESULTS % [10]: 0%; MA RESULTS % [11]: 0%; CRW RESULTS % (corn rootworm): 0% |
| Fc1cccc2c(NCCc3ccc(Cl)cc3)ccnc12 [Example 96, N-[2-(4-chlorophenyl)ethyl)-8-fluoro-4-quinolinamine] | + (20-89% control at 400 ppm) | +++ (90-100% control at 100 ppm) | +++ (90-100% control at 100 ppm) | - (0-19% control at 400 ppm) | +++ (90-100% control at 100 ppm) | +++ (90-100% control at 100 ppm) | - (0-19% control at 400 ppm) | +++ (90-100% control at 100 ppm) | 100% | 0% | 0% | 0% | particularly excellent activity | – | – | – | – | SAW RESULTS % [9]: 100%; SM RESULTS % [10]: 0%; MA RESULTS % [11]: 0%; CRW RESULTS % (corn rootworm): 0% |
| Fc1cccc2c(NCCc3ccc(Cl)cc3Cl)cc(Cl)nc12 [Example 98, 2-chloro-N-[2-(2,4-dichlorophenyl)ethyl]-8-fluoro-4-quinolinamine] | - (0-19% control at 400 ppm) | + (20-89% control at 400 ppm) | ++ (90-100% control at 400 ppm) | - (0-19% control at 400 ppm) | ++ (90-100% control at 400 ppm) | - (0-19% control at 400 ppm) | - (0-19% control at 400 ppm) | - (0-19% control at 400 ppm) | 0% | 0% | 0% | 0% | – | – | – | – | – | – |
| FC(F)(F)c1cccc2c(NCCc3ccccc3)ccnc12 [Example 99, N-(2-phenylethyl)-8-(trifluoromethyl)-4-quinolinamine] | - (0-19% control at 400 ppm) | ++ (90-100% control at 400 ppm) | +++ (90-100% control at 100 ppm) | - (0-19% control at 400 ppm) | +++ (90-100% control at 100 ppm) | + (20-89% control at 400 ppm) | - (0-19% control at 400 ppm) | - (0-19% control at 400 ppm) | 0% | 0% | 0% | 0% | – | – | – | – | – | – |
| Clc1ccc2c(NCCc3ccc(Cl)c(Cl)c3)ccnc2c1 [Example 101, 7-chloro-N-[2-(3,4-dichlorophenyl)ethyl]-4-quinolinamine] | +++ (90-100% control at 100 ppm) | - (0-19% control at 400 ppm) | + (20-89% control at 400 ppm) | - (0-19% control at 400 ppm) | +++ (90-100% control at 100 ppm) | +++ (90-100% control at 100 ppm) | + (20-89% control at 400 ppm) | - (0-19% control at 400 ppm) | 0% | 0% | 0% | 0% | – | 0% | 0% | 0% | 0% | – |
| Fc1cccc(Cl)c1CCNc1ccnc2c(F)cccc12 [Example 103, N-[2-(2-chloro-6-fluorophenyl)ethyl]-8-fluoro-4-quinolinamine] | + (20-89% control at 400 ppm) | ++ (90-100% control at 400 ppm) | ++ (90-100% control at 400 ppm) | - (0-19% control at 400 ppm) | +++ (90-100% control at 100 ppm) | + (20-89% control at 400 ppm) | +++ (90-100% control at 100 ppm) | + (20-89% control at 400 ppm) | 0% | 0% | 0% | 0% | – | 0% | 0% | 0% | 0% | – |
| FC(F)(F)c1ccc2c(NCCc3ccc(Cl)cc3Cl)ccnc2c1 [Example 104, N-[2-(2,4-dichlorophenyl)ethyl]-7-(trifluoromethyl)-4-quinolinamine] | - (0-19% control at 400 ppm) | - (0-19% control at 400 ppm) | - (0-19% control at 400 ppm) | - (0-19% control at 400 ppm) | ++ (90-100% control at 400 ppm) | + (20-89% control at 400 ppm) | + (20-89% control at 400 ppm) | - (0-19% control at 400 ppm) | 0% | 0% | 0% | 0% | – | 60% | 0% | 0% | 0% | – |
| CCN(CCc1ccc(Cl)cc1)c1ccnc2c(F)cccc12 [Example 105, N-[2-(4-chlorophenyl)ethyl]-N-ethyl-8-fluoro-4-quinolinamine] | +++ (90-100% control at 100 ppm) | ++ (90-100% control at 400 ppm) | +++ (90-100% control at 100 ppm) | - (0-19% control at 400 ppm) | +++ (90-100% control at 100 ppm) | + (20-89% control at 400 ppm) | - (0-19% control at 400 ppm) | + (20-89% control at 400 ppm) | 30% | 100% | 80% | 0% | particularly excellent activity | 0% | 0% | 50% | 0% | – |

From patent publication EP0326331B1, “Substituted quinolines and cinnolines” (Dow AgroSciences LLC, priority 1988, dated 1989)
